From patent publication US20110263574A1, “PIRENZEPINE AS OTOPROTECTIVE AGENT” (PROTEOSYS AG, priority 2009, published 2011)
“Also recorded” adds a separate entry of the source.

Key:
Inner hair cells (IHC) = experiment: Otoprotection in cultivated cochlea, cis-platin induced loss of inner hair cells; format: cell-based; details: cultivated cochlea of post-natal mice; cis-platin 5 μM; test compound 0.1 to 100 μM; compared to controls
Method: (§1) In cultivated cochlea, a loss of sensory or hair cells was induced by administering cis-platin (5 μM).
(§2) Intact cochlea of post-natal mice were cultivated up to 7 days (Unsworth and Lelkes, Nat. Med. 4 (1998), 901-907) in simulated microgravity.
(§3) The otic protectivity of the test compounds PSY 310 and PSY 3101 in the presence of ototoxic agents was tested. Neomycin (an aminoglycoside antibiotic) and cis-platinum (a chemotherapeutic agent) were added in three different concentrations to the cultivate organ over a time period of 48 hours.
(§4) The test compounds were added in six different amounts of 0.1 to 100 μM respectively.

Outer hair cells (OHC) = experiment: Otoprotection in cultivated cochlea, cis-platin induced loss of outer hair cells; format: cell-based; details: cultivated cochlea of post-natal mice; cis-platin 5 μM; test compound 0.1 to 100 μM; compared to controls
Method: as §1, §2, §3, §4

[1] = system: germ cell tumor cell line 2101 Ep; experiment: Survival rate of cis-platin treated cancer cell line 2101 Ep with simultaneous test compound; format: cell-based; details: 2101 Ep cells; cis-platin 1.4 μM; 10 μM test compound simultaneously; control DMSO 0.1%
[2] = system: germ cell tumor cell line NT2; experiment: Survival rate of cis-platin treated cancer cell line NT2 with simultaneous test compound; format: cell-based; details: cis-platin 1.4 μM, 10 μM test compound simultaneously, control DMSO 0.1%
PARP-1 = details: induced by transient ischemia or acoustic trauma; Tabuchi et al.; cited from earlier work

SMILES: CN1CCN(CC(=O)N2c3ccccc3C(=O)Nc3cccnc32)CC1 [pirenzepine]
- preserved fraction of inner hair cells (hair cell protection) (Inner hair cells (IHC)): dosis dependent protection; also recorded: dose-dependent increase
- preserved fraction of outer hair cells (hair cell protection) (Outer hair cells (OHC)): dosis dependent protection; also recorded: dose-dependent increase
- effect on cytotoxic effect of cis-platinum (survival rate of cancer cells) [1]: does not reduce
- effect on cytotoxic effect of cis-platinum (survival rate of cancer cells) [2]: does not reduce

SMILES: NC(=O)c1cccc(N)c1 [3-aminobenzamide]
- effect on cochleal dysfunctions (PARP-1): alleviates
